Results reported in ChEMBL document CHEMBL1201862, “PubChem BioAssay data set” (2004).
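Values below derive from 48-hour exposures of cells grown in 96-well plates, with endpoints linearly interpolated between the two concentrations bracketing the appropriate inhibition level. At the GI50, growth is halved.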 Active and inactive are the calls of the source. Cut-off read from the data, not from the text of the source: active = GI50 up to about 1.1 µM and inactive = higher.

What was measured:
Assay in all cases: DTP human tumour cell line panel, 48 h
786-0 = tested on: 786-0
A498 = tested on: A498
A549 = tested on: A549
ACHN = tested on: ACHN
CAKI-1 = tested on: CAKI-1
CCRF-CEM = tested on: CCRF-CEM
COLO 205 = tested on: COLO 205
DLD-1 = tested on: DLD-1
DMS-114 = tested on: DMS-114
DMS-273 = tested on: DMS-273
EKVX = tested on: EKVX
HCC 2998 = tested on: HCC 2998
HCT-116 = tested on: HCT-116
HCT-15 = tested on: HCT-15
HL-60 = tested on: HL-60
HOP-62 = tested on: HOP-62
HOP-92 = tested on: HOP-92
HT-29 = tested on: HT-29
K562 = tested on: K562
KM-20L2 = tested on: KM-20L2
KM12 = tested on: KM12
LOX IMVI = tested on: LOX IMVI
LXFL 529 = tested on: LXFL 529
M14 = tested on: M14
MOLT-4 = tested on: MOLT-4
Malme-3M = tested on: Malme-3M
NCI-H226 = tested on: NCI-H226
NCI-H23 = tested on: NCI-H23
NCI-H460 = tested on: NCI-H460
NCI-H522 = tested on: NCI-H522
OVCAR-3 = tested on: OVCAR-3
OVCAR-5 = tested on: OVCAR-5
OVCAR-8 = tested on: OVCAR-8
RPMI-8226 = tested on: RPMI-8226
RXF 631 = tested on: RXF 631
SF-268 = tested on: SF-268
SF-295 = tested on: SF-295
SF-539 = tested on: SF-539
SK-MEL-28 = tested on: SK-MEL-28
SK-MEL-2 = tested on: SK-MEL-2
SK-MEL-5 = tested on: SK-MEL-5
SN12C = tested on: SN12C
SNB-19 = tested on: SNB-19
SNB-75 = tested on: SNB-75
SNB-78 = tested on: SNB-78
SR = tested on: SR
SW-620 = tested on: SW-620
TK-10 = tested on: TK-10
U-251 = tested on: U-251
UACC-257 = tested on: UACC-257
UACC-62 = tested on: UACC-62
XF498 = tested on: XF498
IGROV-1 = tested on: IGROV-1
M19-MEL = tested on: M19-MEL
OVCAR-4 = tested on: OVCAR-4
RXF 393 = tested on: RXF 393
UO-31 = tested on: UO-31
SK-OV-3 = tested on: SK-OV-3

O=C(CC12C3C4C1C1C2C3C41CC(=O)NO)NO (centres undefined)
GI50 (786-0): 40.7 µM (inactive) | GI50 (A498): 28.8 µM (inactive) | GI50 (A549): 37.8 µM (inactive) | GI50 (ACHN): > 100 µM (inactive) | GI50 (CAKI-1): 71.8 µM (inactive) | GI50 (CCRF-CEM): 26.7 µM (inactive) | GI50 (COLO 205): 46.3 µM (inactive) | GI50 (DLD-1): 48.1 µM (inactive) | GI50 (DMS-114): 24.2 µM (inactive) | GI50 (DMS-273): 40.6 µM (inactive) | GI50 (EKVX): > 100 µM (inactive) | GI50 (HCC 2998): > 100 µM (inactive) | GI50 (HCT-116): 42.4 µM (inactive) | GI50 (HCT-15): 44.2 µM | GI50 (HL-60): 36.9 µM (inactive) | GI50 (HOP-62): 40.8 µM (inactive) | GI50 (HOP-92): 39.3 µM (inactive) | GI50 (HT-29): 29.4 µM (inactive) | GI50 (K562): 25.2 µM (inactive) | GI50 (KM-20L2): 38.2 µM (inactive) | GI50 (KM12): 38.8 µM (inactive) | GI50 (LOX IMVI): 28.9 µM (inactive) | GI50 (LXFL 529): 47.6 µM (inactive) | GI50 (M14): 28.8 µM (inactive) | GI50 (MOLT-4): 45.8 µM (inactive) | GI50 (Malme-3M): 31 µM (inactive) | GI50 (NCI-H226): 34 µM (inactive) | GI50 (NCI-H23): 78.2 µM (inactive) | GI50 (NCI-H460): 23.4 µM (inactive) | GI50 (NCI-H522): 27.7 µM (inactive) | GI50 (OVCAR-3): 34.3 µM (inactive) | GI50 (OVCAR-5): > 100 µM (inactive) | GI50 (OVCAR-8): 33.1 µM (inactive) | GI50 (RPMI-8226): 40.3 µM (inactive) | GI50 (RXF 631): 27.4 µM (inactive) | GI50 (SF-268): 50 µM (inactive) | GI50 (SF-295): 27.1 µM (inactive) | GI50 (SF-539): 46.3 µM (inactive) | GI50 (SK-MEL-28): 60.4 µM (inactive) | GI50 (SK-MEL-2): > 100 µM (inactive) | GI50 (SK-MEL-5): 27.4 µM (inactive) | GI50 (SN12C): 41.2 µM (inactive) | GI50 (SNB-19): > 100 µM (inactive) | GI50 (SNB-75): 29.6 µM (inactive) | GI50 (SNB-78): 44.3 µM (inactive) | GI50 (SR): 49.3 µM (inactive) | GI50 (SW-620): 38.9 µM (inactive) | GI50 (TK-10): > 100 µM (inactive) | GI50 (U-251): 35.7 µM (inactive) | GI50 (UACC-257): 21.8 µM (inactive) | GI50 (UACC-62): 37.6 µM (inactive) | GI50 (XF498): > 100 µM (inactive)

CCc1cccc(C(C)CC)c1NC(=O)CC1C(=O)Nc2ccccc2[S+]1[O-] (centres undefined)
GI50 (786-0): 37.4 µM (inactive) | GI50 (A498): 37.2 µM (inactive) | GI50 (A549): 31.8 µM (inactive) | GI50 (ACHN): 44.2 µM (inactive) | GI50 (CAKI-1): 26.4 µM (inactive) | GI50 (CCRF-CEM): 24.8 µM (inactive) | GI50 (DLD-1): 32.8 µM (inactive) | GI50 (DMS-114): 28.2 µM (inactive) | GI50 (DMS-273): 34 µM (inactive) | GI50 (EKVX): > 100 µM (inactive) | GI50 (HCC 2998): > 100 µM (inactive) | GI50 (HCT-116): 31.3 µM (inactive) | GI50 (HCT-15): 31 µM | GI50 (HL-60): 49.4 µM (inactive) | GI50 (HOP-92): 16.7 µM (inactive) | GI50 (HT-29): 23.1 µM (inactive) | GI50 (IGROV-1): 19.9 µM (inactive) | GI50 (K562): 42.3 µM (inactive) | GI50 (KM-20L2): 61.2 µM (inactive) | GI50 (LOX IMVI): 28.2 µM (inactive) | GI50 (LXFL 529): 31.4 µM (inactive) | GI50 (M14): 22 µM (inactive) | GI50 (M19-MEL): 32.8 µM (inactive) | GI50 (MOLT-4): 14.9 µM (inactive) | GI50 (Malme-3M): 37.2 µM (inactive) | GI50 (NCI-H226): > 100 µM (inactive) | GI50 (NCI-H23): 58.2 µM (inactive) | GI50 (NCI-H460): 29.4 µM (inactive) | GI50 (OVCAR-3): 50.7 µM (inactive) | GI50 (OVCAR-4): 18.3 µM (inactive) | GI50 (OVCAR-5): 33.1 µM (inactive) | GI50 (OVCAR-8): 95.7 µM (inactive) | GI50 (RPMI-8226): 31.3 µM (inactive) | GI50 (RXF 393): 13.9 µM (inactive) | GI50 (RXF 631): 36.1 µM (inactive) | GI50 (SF-268): 40.9 µM (inactive) | GI50 (SF-295): > 100 µM (inactive) | GI50 (SF-539): 23 µM (inactive) | GI50 (SK-MEL-28): 26.1 µM (inactive) | GI50 (SK-MEL-2): 40.5 µM (inactive) | GI50 (SK-MEL-5): 27.2 µM (inactive) | GI50 (SN12C): 91.2 µM (inactive) | GI50 (SNB-19): 28.5 µM (inactive) | GI50 (SNB-75): 22.4 µM (inactive) | GI50 (SNB-78): 28.8 µM (inactive) | GI50 (SR): 30 µM (inactive) | GI50 (SW-620): 39.5 µM (inactive) | GI50 (TK-10): > 100 µM (inactive) | GI50 (U-251): 14.9 µM (inactive) | GI50 (UACC-257): > 100 µM (inactive) | GI50 (UACC-62): 10 µM (inactive) | GI50 (UO-31): > 100 µM (inactive)

CC1C(=O)CCC1C(Sc1ccccc1)(Sc1ccccc1)Sc1ccccc1 (centres undefined)
GI50 (786-0): 22.5 µM (inactive) | GI50 (A498): 23.2 µM (inactive) | GI50 (A549): 9.27 µM (inactive) | GI50 (ACHN): 19.9 µM (inactive) | GI50 (CAKI-1): 16.9 µM (inactive) | GI50 (CCRF-CEM): 3.48 µM (inactive) | GI50 (COLO 205): 38.2 µM (inactive) | GI50 (DLD-1): 28.8 µM (inactive) | GI50 (DMS-114): 13.8 µM (inactive) | GI50 (DMS-273): 23.3 µM (inactive) | GI50 (EKVX): 55.6 µM (inactive) | GI50 (HCC 2998): 20.8 µM (inactive) | GI50 (HCT-116): 16.1 µM (inactive) | GI50 (HCT-15): 30.3 µM | GI50 (HL-60): 5.83 µM (inactive) | GI50 (HOP-62): 37.4 µM (inactive) | GI50 (HOP-92): 8.43 µM (inactive) | GI50 (HT-29): 30.3 µM (inactive) | GI50 (IGROV-1): 15.1 µM (inactive) | GI50 (K562): 20.5 µM (inactive) | GI50 (KM12): 24.7 µM (inactive) | GI50 (LOX IMVI): 21 µM (inactive) | GI50 (LXFL 529): 17.1 µM (inactive) | GI50 (M14): 25 µM (inactive) | GI50 (M19-MEL): 21.1 µM (inactive) | GI50 (MOLT-4): 4.73 µM (inactive) | GI50 (Malme-3M): 37.1 µM (inactive) | GI50 (NCI-H23): 22.5 µM (inactive) | GI50 (NCI-H460): 41.4 µM (inactive) | GI50 (NCI-H522): 11.1 µM (inactive) | GI50 (OVCAR-3): 17.6 µM (inactive) | GI50 (OVCAR-4): 18.8 µM (inactive) | GI50 (OVCAR-5): > 100 µM (inactive) | GI50 (OVCAR-8): 24.3 µM (inactive) | GI50 (RPMI-8226): 12.6 µM (inactive) | GI50 (RXF 393): 14.2 µM (inactive) | GI50 (RXF 631): 25.9 µM (inactive) | GI50 (SF-268): 10.7 µM (inactive) | GI50 (SF-295): 36.8 µM (inactive) | GI50 (SF-539): 18.7 µM (inactive) | GI50 (SK-MEL-28): 22.1 µM (inactive) | GI50 (SK-MEL-2): 34.9 µM (inactive) | GI50 (SK-MEL-5): 16.9 µM (inactive) | GI50 (SK-OV-3): 80.2 µM (inactive) | GI50 (SN12C): 21.1 µM (inactive) | GI50 (SNB-19): 26.5 µM (inactive) | GI50 (SNB-75): 17.1 µM (inactive) | GI50 (SNB-78): 37.8 µM (inactive) | GI50 (SW-620): 27 µM (inactive) | GI50 (TK-10): 47.9 µM (inactive) | GI50 (U-251): 33.8 µM (inactive) | GI50 (UACC-257): 31.5 µM (inactive) | GI50 (UACC-62): 18 µM (inactive) | GI50 (UO-31): 1.32 µM (inactive) | GI50 (XF498): 24.7 µM (inactive)
